Measurements from patent US8993585B2, “Cyclic amine substituted pyrimidinediamines as PKC inhibitors” (Rigel Pharmaceuticals, Inc., priority 2007, dated 2015).

Tested on: Human primary T cells
Assay: IL-2 ELISA, Human Primary T Cell, Anti-CD3+CD28+ (Example 3)
Type: cell-based
Settings: anti-CD3+CD28 stimulation
Description: Human primary T cell isolation and culture: Human primary T cells were prepared as follows. […] The cells at the serum:ficoll interface were recovered and washed twice with 5 volumes of PBS. […] The primary T-cells were then washed twice with PBS to remove the IL-2.
Primary T cell stimulation and IL2 ELISA: Human primary T cells (100,000 cells per well) were pre-incubated with or without test compound in Yssel's medium for 1 hr at 37° C. Cells were then stimulated by transferring them to round-bottom 96-well plates pre-coated with 1 ug/ml αCD3 and 5 μg/ml αCD28. For counter assay, cells were instead stimulated by adding 8× stock solutions of PMA and ionomycin in Yssels (for final concentrations of 0.5 ng/ml PMA and 0.1 uM ionomycin, both from Calbiochem).

Molecule Cc1ccc(Nc2ncc(F)c(N(Cc3ccc(-c4ccccc4)cc3)C3CC(C)(C)N(C)C(C)(C)C3)n2)cc1C#N [Compound I-318] has an IC50 (Homo sapiens, T-cell, 24 h) of 2.51 µM.
For CN1C(C)(C)CC(Nc2nc(Nc3nc4ccccc4s3)ncc2F)CC1(C)C [II-16], the IC50 (Homo sapiens, T-cell, 24 h) was 1.64 µM.
For CN1C(C)(C)CC(Nc2nc(Nc3ccc(Br)cc3)ncc2F)CC1(C)C [Compound I-108], the IC50 (24 hours) was 1.15 µM.
In the case of CN1C(C)(C)CC(Nc2nc(Nc3ccc(C#N)c(C(F)(F)F)c3)ncc2F)CC1(C)C [Compound I-152], the IC50 (24 hours) is reported as 0.604 µM.
For CN1C(C)(C)CC(Nc2nc(Nc3ccc(N4CCN(S(C)(=O)=O)CC4)c(C(F)(F)F)c3)ncc2C(F)(F)F)CC1(C)C [Compound I-88], the IC50 (24 hours) was 0.287 µM.
COc1ccc(Nc2ncc(F)c(NC3CC(C)(C)N(C)C(C)(C)C3)n2)cc1OC(C)C [Compound I-360] gave an IC50 (24 hours) of 2.2 µM.
With CN1C(C)(C)CC(Nc2nc(Nc3ccc(N4CCNCC4)c(Cl)c3)ncc2[N+](=O)[O-])CC1(C)C [Compound I-77] the IC50 (24 hours) was 2.59 µM.
In the case of COc1cc(Nc2ncc(F)c(N(Cc3ccc(-c4ccccc4C#N)cc3)C3CC(C)(C)N(C)C(C)(C)C3)n2)cc(OC)c1 [Compound I-325], the IC50 (Homo sapiens, T-cell, 24 h) is reported as 3.46 µM.
For CC(C)OC(=O)Nc1cccc(Nc2ncc(F)c(NC3CC(C)(C)N(C)C(C)(C)C3)n2)c1 [Compound I-139], the IC50 (24 hours) was 1.57 µM.
Molecule COc1cc(Nc2ncc(F)c(N(Cc3ccc(-c4ccccc4)cc3)C3CC(C)(C)N(C)C(C)(C)C3)n2)cc(OC)c1 [Compound I-317] has an IC50 (Homo sapiens, T-cell, 24 h) of 2.42 µM.
Work on COc1ccc(Nc2ncc(Br)c(NC3CC(C)(C)N(C)C(C)(C)C3)n2)cc1OC [Compound I-274] yielded an IC50 (24 hours) of 1.21 µM.
In the case of CCN1C(=O)C(C)(C)Sc2cc(Nc3ncc(F)c(NC4CC(C)(C)N(C)C(C)(C)C4)n3)ccc21 [II-63], the IC50 (Homo sapiens, T-cell, 24 h) is reported as 0.0772 µM.
Molecule CCN1CCc2cc(Nc3ncc(F)c(NC4CC(C)(C)N(C)C(C)(C)C4)n3)ccc21 [II-52] has an IC50 (Homo sapiens, T-cell, 24 h) of 5.61 µM.
CN(c1nc(Nc2cccc(C#N)c2)ncc1F)C1CC(C)(C)N(C)C(C)(C)C1 [Compound I-66] showed an IC50 (24 hours) of 1.46 µM.
CN1C(C)(C)CC(Nc2nc(Nc3ccc(N4CCNCC4)c(C(F)(F)F)c3)ncc2[N+](=O)[O-])CC1(C)C [Compound I-75] showed an IC50 (24 hours) of 11.3 µM.
CN1C(C)(C)CC(Nc2nc(Nc3cc4c(cc3F)OC(F)(F)C(F)(F)O4)ncc2F)CC1(C)C [II-123] showed an IC50 (Homo sapiens, T-cell, 24 h) of 0.88 µM.
For CN1C(C)(C)CC(Nc2nc(Nc3cc(-c4ccncc4)cc(C(F)(F)F)c3)ncc2F)CC1(C)C [Compound I-201], the IC50 (24 hours) was 0.522 µM.
In the case of COc1cc(Nc2ncc(F)c(NC3CC(C)(C)N(CCC(=O)O)C(C)(C)C3)n2)cc(OC)c1 [Compound I-302], the IC50 (Homo sapiens, T-cell, 24 h) is reported as 25.1 µM.
For Cc1ccc(Nc2ncc(F)c(NC3CC(C)(C)N(CCC(=O)O)C(C)(C)C3)n2)cc1C#N [Compound I-306], the IC50 (Homo sapiens, T-cell, 24 h) was 10.5 µM.
COc1cc(Nc2ncc(Br)c(NC3CC(C)(C)N(C)C(C)(C)C3)n2)cc(OC)c1OC [Compound I-276] gave an IC50 (24 hours) of 1.83 µM.
In the case of CC(C)N1C(=O)C(C)(C)Oc2cc(Nc3ncc(F)c(NC4CC(C)(C)N(C)C(C)(C)C4)n3)ccc21 [II-44], the IC50 (Homo sapiens, T-cell, 24 h) is reported as 0.298 µM.
Work on CCN1C(=O)C(C)(C)Oc2cc(Nc3ncc(F)c(NC4CC(C)(C)N(C)C(C)(C)C4)n3)cnc21 [II-55] yielded an IC50 (Homo sapiens, T-cell, 24 h) of 0.258 µM.
With CN1C(C)(C)CC(Nc2nc(Nc3ccc(-n4cnnn4)cc3)ncc2F)CC1(C)C [Compound I-400] the IC50 (24 hours) was 1.69 µM.
With CN1C(C)(C)CC(Nc2nc(Nc3ccc(N4CCC(F)(F)CC4)c(Cl)c3)ncc2F)CC1(C)C [Compound I-50] the IC50 (24 hours) was 0.32 µM.
Work on CN1C(C)(C)CC(Nc2nc(Nc3cccc(OC(F)(F)F)c3)ncc2Br)CC1(C)C [Compound I-275] yielded an IC50 (24 hours) of 0.617 µM.
Molecule CN1C(C)(C)CCC(Nc2nc(Nc3cc(Cl)cc(Cl)c3)ncc2F)CC1(C)C (centres unmarked) [Compound I-265, 5-Fluoro-N2-[3,5-dichloro]phenyl-N4-(1,2,2,7,7-pentamethylazepan-4-yl)-2,4-pyrimidinediamine] has an IC50 (24 hours) of 4.32 µM.
For CN1C(C)(C)CC(Nc2nc(Nc3ccc(N4CCOCC4)c(C(F)(F)F)c3)ncc2C(F)(F)F)CC1(C)C [Compound I-330], the IC50 (24 hours) was 1.12 µM.
With COc1ccc(Nc2ncc(F)c(N(C)C3CC(C)(C)N(C)C(C)(C)C3)n2)cc1Cl [Compound I-58] the IC50 (24 hours) was 2 µM.
With CN1C(C)(C)CC(Nc2nc(Nc3ccc(F)c(-c4cnn(C)c4)c3)ncc2F)CC1(C)C [Compound I-182] the IC50 (24 hours) was 0.675 µM.
CN1C(C)(C)CC(Nc2nc(Nc3ccc(OC(F)(F)F)c(-c4ccoc4)c3)ncc2F)CC1(C)C [Compound I-209] gave an IC50 (24 hours) of 0.706 µM.
In the case of CC(C)n1c(=O)oc2cc(Nc3ncc(C#N)c(NC4CC(C)(C)N(C)C(C)(C)C4)n3)ccc21 [II-70], the IC50 (Homo sapiens, T-cell, 24 h) is reported as 0.327 µM.
For CN1C(C)(C)CC(Nc2nc(Nc3nc(-c4ccc(Oc5ccccc5)cc4)cs3)ncc2F)CC1(C)C [II-139], the IC50 (Homo sapiens, T-cell, 24 h) was 0.91 µM.
With CN1C(C)(C)CC(Nc2nc(Nc3ccc(-n4cccc4)c(C#N)c3)ncc2C#N)CC1(C)C [Compound I-206] the IC50 (24 hours) was 1.03 µM.
COc1cc(Nc2ncc(F)c(NC3CCC(C)(C)N(C)C(C)(C)C3)n2)cc(OC)c1OC (centres unmarked) [Compound I-266, 5-Fluoro-N2-[3,4,5-trimethoxy]phenyl-N4-(1,2,2,7,7-pentamethylazepan-4-yl)-2,4-pyrimidinediamine] gave an IC50 (24 hours) of 11.2 µM.
Work on COc1ccc(Nc2ncc(F)c(N(Cc3ccc(-c4ccccc4)cc3)C3CC(C)(C)N(C)C(C)(C)C3)n2)cc1OC(F)F [Compound I-319] yielded an IC50 (Homo sapiens, T-cell, 24 h) of 2.85 µM.
CN1C(C)(C)CC(Nc2nc(Nc3ccc(F)c(-c4ccoc4)c3)ncc2F)CC1(C)C [Compound I-192] showed an IC50 (24 hours) of 0.941 µM.
With CC1(C)CC(Nc2nc(Nc3ccc4c(c3)OC(C)(C)O4)ncc2F)CC(C)(C)N1 [II-102] the IC50 (Homo sapiens, T-cell, 24 h) was 5.22 µM.
In the case of COc1ccc(Nc2ncc(F)c(NC3CC(C)(C)N(C)C(C)(C)C3)n2)cc1F [Compound I-127], the IC50 (24 hours) is reported as 1.14 µM.
With CN1C(C)(C)CC(Nc2nc(Nc3ccc(C#N)cc3)ncc2F)CC1(C)C [Compound I-25] the IC50 (24 hours) was 4.89 µM.
For COc1cc(Nc2nc(C)cc(NC3CC(C)(C)N(C)C(C)(C)C3)n2)cc(OC)c1 [IV-2], the IC50 (Homo sapiens, T-cell, 24 h) was 3.14 µM.
In the case of CCN1C(=O)C(C)(C)Oc2cc(Nc3ncc(C(F)(F)F)c(NC4CC(C)(C)N(C)C(C)(C)C4)n3)ccc21 [II-50], the IC50 (Homo sapiens, T-cell, 24 h) is reported as 0.0918 µM.
In the case of CN1C(C)(C)CC(Nc2nc(Nc3ccc(OC(F)(F)F)c(-c4cc5ccccc5s4)c3)ncc2F)CC1(C)C [Compound I-211], the IC50 (24 hours) is reported as 1.7 µM.
Molecule CN1CCN(c2ccc(Nc3ncc(F)c(N(Cc4ccccc4)C4CC(C)(C)N(C)C(C)(C)C4)n3)cc2C(F)(F)F)CC1 [Compound I-311] has an IC50 (Homo sapiens, T-cell, 24 h) of 0.804 µM.
For CCN(CC)C1CCC(Nc2nc(Nc3ccc(N4CCN(S(C)(=O)=O)CC4)c(Cl)c3)ncc2F)CC1 (centres unmarked) [IV-4, N2-[3-Chloro-4-(4-methylsulfonylpiperazino)]phenyl-N4-(4-diethylamino)cyclohexyl-5-fluoro-2,4-pyrimidinediamine], the IC50 (Homo sapiens, T-cell, 24 h) was 7.05 µM.
CN1CCN(c2ccc(Nc3ncc(F)c(NC4CC(C)(C)N(C)C(C)(C)C4)n3)cc2C(N)=O)CC1 [Compound I-53] showed an IC50 (24 hours) of 1.94 µM.
With CN1C(C)(C)CC(Nc2nc(Nc3cc(OCC(F)(F)F)cc(OCC(F)(F)F)c3)ncc2C#N)CC1(C)C [Compound I-411] the IC50 (24 hours) was 0.28 µM.
With CN1C(C)(C)CC(Nc2nc(Nc3ccc4[nH]ncc4c3)ncc2F)CC1(C)C [II-38] the IC50 (Homo sapiens, T-cell, 24 h) was 0.827 µM.
In the case of CN1C(C)(C)CC(Nc2nc(Nc3ccc(F)c(-c4cccnc4)c3)ncc2F)CC1(C)C [Compound I-180], the IC50 (24 hours) is reported as 0.914 µM.
With CN1C(C)(C)CC(Nc2nc(Nc3cccc(-c4cnn(C)c4)c3)ncc2F)CC1(C)C [Compound I-143] the IC50 (24 hours) was 1.41 µM.
CN1C(C)(C)CC(Nc2nc(Nc3ccc4c(c3)OC(C)(C)C(=O)N4CCCF)ncc2F)CC1(C)C [II-78] gave an IC50 (Homo sapiens, T-cell, 24 h) of 0.369 µM.
Work on COc1cccc2sc(Nc3ncc(F)c(NC4CC(C)(C)N(C)C(C)(C)C4)n3)nc12 [II-20] yielded an IC50 (Homo sapiens, T-cell, 24 h) of 2.1 µM.
CCN1C(=O)C(F)(F)Oc2cc(Nc3ncc(C#N)c(NC4CC(C)(C)NC(C)(C)C4)n3)cnc21 [II-73] gave an IC50 (24 hours) of 1.18 µM.
Work on COc1cc(Nc2ncc(F)c(NC3CC(C)(C)N(C)C(C)(C)C3)n2)cc(OCCN2CCCC2)c1 [Compound I-434] yielded an IC50 (Homo sapiens, T-cell, 24 h) of 0.27 µM.
With CN1CCN(C(=O)C2COc3cc(Nc4ncc(F)c(NC5CC(C)(C)NC(C)(C)C5)n4)ccc3O2)CC1 (centres unmarked) [II-160] the IC50 (Homo sapiens, T-cell, 24 h) was 17.9 µM.
CN1CCN(c2cc(Nc3ncc(F)c(NC4CC(C)(C)N(C)C(C)(C)C4)n3)ccc2Cl)CC1 [Compound I-65] gave an IC50 (24 hours) of 1.98 µM.
CC1(C)CC(Nc2nc(Nc3ccc(N4CCN(S(C)(=O)=O)CC4)c(C(F)(F)F)c3)ncc2F)CC(C)(C)N1 [Compound I-257] was tested, and the IC50 (24 hours) was 0.423 µM.
Cc1nnnn1-c1cccc(Nc2ncc(F)c(NC3CC(C)(C)N(C)C(C)(C)C3)n2)c1 [Compound I-396] gave an IC50 (24 hours) of 0.1 µM.
With CN1C(C)(C)CC(Nc2nc(Nc3ccc(-c4ccc(N5CCOCC5)nc4)c(C#N)c3)ncc2F)CC1(C)C [Compound I-427] the IC50 (Homo sapiens, T-cell, 24 h) was 0.66 µM.
In the case of COC(=O)C(C)N1C(C)(C)CC(Nc2nc(Nc3ccc(C)c(C#N)c3)ncc2F)CC1(C)C (centres unmarked) [Compound I-296], the IC50 (Homo sapiens, T-cell, 24 h) is reported as 1.04 µM.
Work on COc1ccc(Nc2ncc(F)c(NC3CC(C)(C)N(C)C3(C)C)n2)cc1C(F)(F)F (centres unmarked) [Compound I-283, 5-Fluoro-N2-(4-methoxy-3-trifluoromethyl)phenyl-N4-(1,2,2,5,5-pentamethylpyrrolidin-3-yl)-2,4-pyrimidinediamine] yielded an IC50 (24 hours) of 2.7 µM.
COc1cc(Nc2ncc(C(N)=O)c(NC3CC(C)(C)NC(C)(C)C3)n2)cc(-n2nnnc2C)c1 [Compound I-387] showed an IC50 (24 hours) of 3.47 µM.
COC(=O)N1CCN(c2ccc(Nc3ncc(F)c(NC4CC(C)(C)N(C)C(C)(C)C4)n3)cc2Cl)CC1 [Compound I-62] was tested, and the IC50 (24 hours) was 0.257 µM.
CN1CCN(c2ccc(Nc3nccc(NC4CC(C)(C)N(C)C(C)(C)C4)n3)cc2C(F)(F)F)CC1 [Compound I-229] gave an IC50 (24 hours) of 0.585 µM.
Molecule CC(=O)N1CCN(c2ccc(Nc3ncc(F)c(NC4CC(C)(C)N(C)C(C)(C)C4)n3)cc2C(F)(F)F)CC1 [Compound I-49] has an IC50 (24 hours) of 0.284 µM.
COC(=O)N1CCN(c2cc(Nc3ncc(F)c(NC4CC(C)(C)N(C)C(C)(C)C4)n3)ccc2C(F)(F)F)CC1 [Compound I-214] was tested, and the IC50 (24 hours) was 0.54 µM.
